From US20260324697A1, “MATERIALS AND METHODS FOR MASKING BITTERNESS” (UNIVERSITY OF FLORIDA RESEARCH FOUNDATION, INCORPORATED, priority 2023, published 2026)
Structures can show the parent of a compound that is named as a salt.

What was measured:
Assay type in all cases: in vivo, persons (trained panelists)
[1] = Sensory panel testing of bitterness reduction of 500 ppm caffeine solutions; details: for Panel Score (0-15), bitterness: 0: no bitterness, 15: very bitter
Description: (§1) Sensory testing was used to identify extracts that provide bitterness reduction and to evaluate the degree of bitterness reduction provided by specific compounds. In general, bitterness sensory testing involved providing test solutions to trained panelists who rated the perceived bitterness of test solutions. Panels consisted of three persons who can taste phenylthiocarbamide (PTC) test paper, and panelists were selected based on their ability to discriminate differences in the concentrations of bitterness. Panelists swirled an aliquot of a solution in the mouth for 15 seconds, spit out the test solution, and rated the perceived bitterness intensity of the solution on a scale of 0 to 15 (0: no bitterness, 15: very bitter). Panelists drank water after each test solution evaluation to remove the bitterness before evaluating the next solution.
(§2) Panel testing results can be used to quantify perceived changes in bitterness. The change in perceived bitterness of an ingestible composition following addition of a bitter-masking agent is defined herein as the percent change in the bitterness panel test rating of a composition to which a bitter-masking agent has been added compared to the bitterness panel test rating of the otherwise identical composition without the bitter-masking agent. For instance, if a composition is given a bitterness intensity rating of 8, and the same composition with addition of an amount of bitter-masking agent is given a bitterness intensity rating of 6, then the bitter-masking agent has provided a perceived change in bitterness of 25%.
Compound 1 was evaluated by sensory panel testing for bitterness reduction of caffeine solutions. A solution of 500 ppm caffeine in distilled water was used as a control solution having high bitterness, and Compound 1 was added to aliquots of the control solution to provide test solutions containing 500 ppm caffeine and 25, 50, or 100 ppm of Compound 1.

[2] = Sensory panel testing of bitterness reduction of 6 ppm quinine solutions; details: for Panel Score (0-15), bitterness: 0: no bitterness, 15: very bitter
Description: as §1, §2
Compound 1 was evaluated by sensory panel testing. A solution of 6 ppm quinine monohydrochloride dihydrate in distilled water was used as a control solution having high bitterness, and Compound 1 was added to aliquots of the control solution to provide test solutions containing 6 ppm quinine and 25, 50, or 100 ppm of Compound 1.
Compounds 2-5 were also evaluated by sensory panel testing in the same manner as Compound 1.
Sensory panel tests were also performed to evaluate whether crude extracts from allspice would be effective at reducing bitterness. Allspice was mixed with boiling water to obtain a crude aqueous mixture, and solvent was removed from the crude aqueous mixture using rotary evaporation to obtain a crude extract. The crude extract was used without further purification. An aqueous solution containing 6 ppm quinine was used as a bitterness control solution, and the crude extract was added to aliquots of the control solution to provide test solutions containing 6 ppm quinine and 100 ppm or 1000 ppm of the crude extract. The three solutions were evaluated by a sensory panel as described above.

[3] = Sensory panel testing of perceived sweetness of 6 ppm sucrose solutions; details: for Panel Score (0-15), sweetness: 0: no sweetness, 15: very sweet
Description: Similar panel testing was done to evaluate perceived sweetness of test solutions. Panelists swirled an aliquot of test solution in the mouth for 15 seconds, spit out the test solution, and rated the perceived sweetness intensity of the test solution on a scale of 0 to 15 (0: no sweetness, 15: very sweet). Panelists drank water after each test solution evaluation before evaluating the next test solution.
Panel testing results can be used to quantify perceived changes in sweetness in an analogous manner. The change in perceived sweetness of an ingestible composition following addition of a bitter-masking agent or other agent is defined herein as the percent change in the sweetness panel test rating of a composition to which a bitter-masking agent or other agent has been added compared to the sweetness panel test rating of the otherwise identical composition without the bitter-masking agent or other agent. For instance, if a composition is given a sweetness intensity rating of 8, and the same composition with addition of an amount of bitter-masking agent or other agent is given a sweetness intensity rating of 6, then the bitter-masking agent or other agent has provided a perceived change in sweetness of 25%.
A similar panel test was performed to assess whether the efficacy of Compound 1 at masking bitterness is derived from imparting sweetness. A solution of 6 ppm sucrose in distilled water was used as a sweetness control solution, and Compound 1 was added to three aliquots of the sweetness control solution to provide test solutions containing 6 ppm sucrose and 25, 50, or 100 ppm of Compound 1. Panelists then evaluated the sweetness intensity of each test solution.

Cn1c(=O)c2c(ncn2C)n(C)c1=O [caffeine, reference compound]
Panel Score (0-15), bitterness ([1]; 500 ppm caffeine alone (control)): 3.0

COc1cc(C[C@@H](O)CO)ccc1O [Compound 1, (2R)-3-(4-hydroxy-3-methoxyphenyl) propane-1,2-diol]
perceived bitterness of quinine solutions ([2]; 6 ppm quinine, 25, 50, or 100 ppm Compound 1): markedly reduced the perceived bitterness of quinine solutions
Panel Score (0-15), bitterness ([2]; 25 ppm Compound 1 added to 6 ppm quinine): 5.0
Panel Score (0-15), bitterness ([2]; 50 ppm Compound 1 added to 6 ppm quinine): 3.0
Panel Score (0-15), bitterness ([2]; 100 ppm Compound 1 added to 6 ppm quinine): 0.8
contribution to perceived sweetness of the test solutions ([3]; 6 ppm sucrose, 25, 50, or 100 ppm Compound 1): did not contribute to perceived sweetness of the test solutions
Panel Score (0-15), sweetness ([3]; 25 ppm Compound 1 added to 6 ppm sucrose): 7.2
Panel Score (0-15), sweetness ([3]; 50 ppm Compound 1 added to 6 ppm sucrose): 6.8
Panel Score (0-15), sweetness ([3]; 100 ppm Compound 1 added to 6 ppm sucrose): 7.2
Panel Score (0-15), bitterness ([1]; 25 ppm Compound 1 added to 500 ppm caffeine): 3.5
Panel Score (0-15), bitterness ([1]; 50 ppm Compound 1 added to 500 ppm caffeine): 4.0
Panel Score (0-15), bitterness ([1]; 100 ppm Compound 1 added to 500 ppm caffeine): 3.8
masking of the bitterness of caffeine solutions ([1]; 500 ppm caffeine, 25, 50, or 100 ppm Compound 1): did not significantly mask the bitterness of caffeine solutions

OC[C@H]1O[C@@](CO)(O[C@H]2O[C@H](CO)[C@@H](O)[C@H](O)[C@H]2O)[C@@H](O)[C@@H]1O [sucrose, reference compound]
Panel Score (0-15), sweetness ([3]; 6 ppm sucrose alone (control)): 7.0

C=C[C@H]1C[N@@]2CC[C@H]1C[C@H]2[C@H](O)c1ccnc2ccc(OC)cc12 [quinine, quinine monohydrochloride dihydrate, reference compound]
Panel Score (0-15), bitterness ([2]; 6 ppm quinine alone (control), Example 2): 6.0
Panel Score (0-15), bitterness ([2]; 6 ppm quinine alone (control), Example 3): 6.0
